Reference: the supplement of paper PMC11061612

Legend:
Paclitaxel = compound: CC(=O)O[C@H]1C(=O)[C@@]2(C)[C@H]([C@H](OC(=O)c3ccccc3)[C@]3(O)C[C@H](OC(=O)[C@H](O)[C@@H](NC(=O)c4ccccc4)c4ccccc4)C(C)=C1C3(C)C)[C@]1(OC(C)=O)CO[C@@H]1C[C@@H]2O [Paclitaxel]; settings: max 3 µM
How it was run: (§1)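 Following 24 hours at 37°C and 5% CO2, cancer cell lines in 1536-well plates with 7.5 μl DMEM/F12 or RPMI and 10% FBS were dosed for 72 hours, final DMSO typically being 0.2%. CellTiter-Glo 2.0 luminescence, scaled between blank-well and DMSO-well means, gave the viability readout. Dose responses were fitted to a two-parameter logistic curve with a non-linear mixed effects model, and the single-agent IC50 was derived from this fit.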

Doxorubicin = compound: COc1cccc2c1C(=O)c1c(O)c3c(c(O)c1C2=O)C[C@@](O)(C(=O)CO)C[C@@H]3O[C@H]1C[C@H](N)[C@H](O)[C@H](C)O1 [Doxorubicin]; settings: max 1 µM
How it was run: as §1

5-Fluorouracil = compound: O=c1[nH]cc(F)c(=O)[nH]1 [5-Fluorouracil]; settings: max 20 µM
How it was run: as §1

AZD6738 = compound: C[C@@H]1COCCN1C2=NC(=NC(=C2)C3(CC3)[S@](=N)(=O)C)C4=C5C=CNC5=NC=C4 [AZD6738]; settings: max 10 µM
How it was run: as §1

AZD0156 = compound: CN(C)CCCOc1ccc(-c2ccc3ncc4c(c3c2)n(C2CCOCC2)c(=O)n4C)cn1 [AZD0156]; settings: max 3 µM
How it was run: as §1

AZD5153 = compound: COc1nnc2ccc(N3CCC(c4ccc(OCCN5CCN(C)C(=O)[C@H]5C)cc4)CC3)nn12 [AZD5153]; settings: max 1 µM
How it was run: as §1

AZD5991 = compound: Cc1c2c(nn1C)CSCc1cc(n(C)n1)CSc1cc(c3ccccc3c1)OCCCc1c(C(=O)O)n(C)c3c-2c(Cl)ccc13 [AZD5991]; settings: max 1 µM
How it was run: as §1

Crizotinib = compound: C[C@@H](Oc1cc(-c2cnn(C3CCNCC3)c2)cnc1N)c1c(Cl)ccc(F)c1Cl [Crizotinib]; settings: max 10 µM
How it was run: as §1

Gefitinib = compound: COc1cc2ncnc(Nc3ccc(F)c(Cl)c3)c2cc1OCCCN1CCOCC1 [Gefitinib]; settings: max 10 µM
How it was run: as §1

Venetoclax = compound: CC1(C)CCC(CN2CCN(c3ccc(C(=O)NS(=O)(=O)c4ccc(NCC5CCOCC5)c([N+](=O)[O-])c4)c(Oc4cnc5[nH]ccc5c4)c3)CC2)=C(c2ccc(Cl)cc2)C1 [Venetoclax]; settings: max 1 µM
How it was run: as §1

[1] = compound: O=C(Nc1ccc2[nH]nc(-c3ccncc3)c2c1)[C@@H]1CCN(CC(=O)N2CCN(c3ccc(-c4ncccn4)cc3)CC2)C1; settings: max 5 µM
How it was run: as §1

AZD5363 = compound: C1CN(CCC1(C(=O)N[C@@H](CCO)C2=CC=C(C=C2)Cl)N)C3=NC=NC4=C3C=CN4 [AZD5363]; settings: max 10 µM
How it was run: as §1

AZD2811 = compound: CCN(CCO)CCCOc1ccc2c(Nc3cc(CC(=O)Nc4cccc(F)c4)[nH]n3)ncnc2c1 [AZD2811]; settings: max 1 µM
How it was run: as §1

Prexasertib = compound: COc1cccc(OCCCN)c1-c1cc(Nc2cnc(C#N)cn2)n[nH]1 [Prexasertib]; settings: max 1 µM
How it was run: as §1

AZD7648 = compound: Cc1cc2ncnn2cc1Nc1ncc2c(n1)n(C1CCOCC1)c(=O)n2C [AZD7648]; settings: max 10 µM
How it was run: as §1

SG3199 = compound: CC1=CN2[C@@H](C1)C=NC3=CC(=C(C=C3C2=O)OC)OCCCCCOC4=C(C=C5C(=C4)N=C[C@@H]6CC(=CN6C5=O)C)OC [SG3199]; settings: max 0.001 µM
How it was run: as §1

Gemcitabine = compound: Nc1ccn([C@@H]2O[C@H](CO)[C@@H](O)C2(F)F)c(=O)n1 [Gemcitabine]; settings: max 0.3 µM
How it was run: as §1

SRA737 = compound: N#Cc1cnc(Nc2cc(NC[C@H]3CNCCO3)c(C(F)(F)F)cn2)cn1 [SRA737]; settings: max 10 µM
How it was run: as §1

AZD1390 = compound: CC(C)n1c(=O)n(C)c2cnc3cc(F)c(-c4ccc(OCCCN5CCCCC5)nc4)cc3c21 [AZD1390]; settings: max 0.3 µM
How it was run: as §1

Etoposide = compound: COc1cc([C@@H]2c3cc4c(cc3[C@@H](O[C@@H]3O[C@@H]5CO[C@@H](C)O[C@H]5[C@H](O)[C@H]3O)[C@H]3COC(=O)[C@H]23)OCO4)cc(OC)c1O [Etoposide]; settings: max 10 µM
How it was run: as §1

Selumetinib = compound: Cn1cnc2c(F)c(Nc3ccc(Br)cc3Cl)c(C(=O)NOCCO)cc21 [Selumetinib]; settings: max 10 µM
How it was run: as §1

Olaparib = compound: O=C(c1cc(Cc2n[nH]c(=O)c3ccccc23)ccc1F)N1CCN(C(=O)C2CC2)CC1 [Olaparib]; settings: max 10 µM
How it was run: as §1

AZD8186 = compound: C[C@@H](Nc1cc(F)cc(F)c1)c1cc(C(=O)N(C)C)cc2c(=O)cc(N3CCOCC3)oc12 [AZD8186]; settings: max 10 µM
How it was run: as §1

SN-38 = compound: CCc1c2c(nc3ccc(O)cc13)-c1cc3c(c(=O)n1C2)COC(=O)[C@]3(O)CC [SN-38]; settings: max 0.3 µM
How it was run: as §1

Dasatinib = compound: CC1=C(C(=CC=C1)Cl)NC(=O)C2=CN=C(S2)NC3=CC(=NC(=N3)C)N4CCN(CC4)CCO [Dasatinib]; settings: max 2 µM
How it was run: as §1

MK-2206 = compound: NC1(c2ccc(-c3nc4ccn5c(=O)[nH]nc5c4cc3-c3ccccc3)cc2)CCC1 [MK-2206]; settings: max 10 µM
How it was run: as §1

Palbociclib = compound: CC(=O)c1c(C)c2cnc(Nc3ccc(N4CCNCC4)cn3)nc2n(C2CCCC2)c1=O [Palbociclib]; settings: max 10 µM
How it was run: as §1

Carboplatin = compound: C1CC(C1)(C(=O)[O-])C(=O)[O-].N.N.[Pt+2] [Carboplatin]; settings: max 10 µM
How it was run: as §1

Trametinib = compound: CC(=O)Nc1cccc(-n2c(=O)n(C3CC3)c(=O)c3c(Nc4ccc(I)cc4F)n(C)c(=O)c(C)c32)c1 [Trametinib]; settings: max 1 µM
How it was run: as §1

Savolitinib = compound: C[C@@H](c1ccc2nccn2c1)n1nnc2ncc(-c3cnn(C)c3)nc21 [Savolitinib]; settings: max 1 µM
How it was run: as §1

Lapatinib = compound: CS(=O)(=O)CCNCc1ccc(-c2ccc3ncnc(Nc4ccc(OCc5cccc(F)c5)c(Cl)c4)c3c2)o1 [Lapatinib]; settings: max 10 µM
How it was run: as §1

AZD1775 = compound: C=CCn1c(=O)c2cnc(Nc3ccc(N4CCN(C)CC4)cc3)nc2n1-c1cccc(C(C)(C)O)n1 [AZD1775]; settings: max 3 µM
How it was run: as §1

Alisertib = compound: COc1cc(Nc2ncc3c(n2)-c2ccc(Cl)cc2C(c2c(F)cccc2OC)=NC3)ccc1C(=O)O [Alisertib]; settings: max 10 µM
How it was run: as §1

Taselisib = compound: Cc1nc(-c2cn3c(n2)-c2ccc(-c4cnn(C(C)(C)C(N)=O)c4)cc2OCC3)n(C(C)C)n1 [Taselisib]; settings: max 10 µM
How it was run: as §1

AZD4320 = compound: CN(CC[C@H](CSC1=CC=CC=C1)NC2=C(C=C(C=C2)S(=O)(=O)NC(=O)C3=CC=C(C=C3)N4CCC(CC4)[C@H](C5=CC=CC=C5C6=CC=C(C=C6)Cl)O)S(=O)(=O)C(F)(F)F)CCO [AZD4320]; settings: max 1 µM
How it was run: as §1

Row | Cell Line | IC50, cell viability 72 h (Paclitaxel) [µM] | IC50, cell viability 72 h (Doxorubicin) [µM] | IC50, cell viability 72 h (5-Fluorouracil) [µM] | IC50, cell viability 72 h (AZD6738) [µM] | IC50, cell viability 72 h (AZD0156) [µM] | IC50, cell viability 72 h (AZD5153) [µM] | IC50, cell viability 72 h (AZD5991) [µM] | IC50, cell viability 72 h (Crizotinib) [µM] | IC50, cell viability 72 h (Gefitinib) [µM] | IC50, cell viability 72 h (Venetoclax) [µM] | IC50, cell viability 72 h [1] [µM] | IC50, cell viability 72 h (AZD5363) [µM] | IC50, cell viability 72 h (AZD2811) [µM] | IC50, cell viability 72 h (Prexasertib) [µM] | IC50, cell viability 72 h (AZD7648) [µM] | IC50, cell viability 72 h (SG3199) [µM] | IC50, cell viability 72 h (Gemcitabine) [µM] | IC50, cell viability 72 h (SRA737) [µM] | IC50, cell viability 72 h (AZD1390) [µM] | IC50, cell viability 72 h (Etoposide) [µM] | IC50, cell viability 72 h (Selumetinib) [µM] | IC50, cell viability 72 h (Olaparib) [µM] | IC50, cell viability 72 h (AZD8186) [µM] | IC50, cell viability 72 h (SN-38) [µM] | IC50, cell viability 72 h (Dasatinib) [µM] | IC50, cell viability 72 h (MK-2206) [µM] | IC50, cell viability 72 h (Palbociclib) [µM] | IC50, cell viability 72 h (Carboplatin) [µM] | IC50, cell viability 72 h (Trametinib) [µM] | IC50, cell viability 72 h (Savolitinib) [µM] | IC50, cell viability 72 h (Lapatinib) [µM] | IC50, cell viability 72 h (AZD1775) [µM] | IC50, cell viability 72 h (Alisertib) [µM] | IC50, cell viability 72 h (Taselisib) [µM] | IC50, cell viability 72 h (AZD4320) [µM]
1 | H4 (Low Grade Glioma) | 0.0324 | 0.157 | 9.69 | 3.6 | > 3 | 0.164 | > 1 | 3 | > 10 | > 1 | > 5 | 6.25 | > 1 | 0.0604 | > 10 | > 0.001 | 0.0223 | > 10 | > 0.3 | 2 | > 10 | > 10 | 3.8 | 0.0233 | > 2 | > 10 | 6.45 | > 10 | > 1 | > 1 | > 10 | 0.108 | 0.312 | 3.68 | > 1
2 | HCC38 (Breast Carcinoma) | 0.296 | > 1 | > 20 | > 10 | > 3 | > 1 | > 1 | > 10 | > 10 | > 1 | > 5 | > 10 | > 1 | 0.0804 | > 10 | > 0.001 | 0.172 | > 10 | > 0.3 | > 10 | > 10 | > 10 | > 10 | 0.0695 | > 2 | > 10 | > 10 | > 10 | > 1 | > 1 | > 10 | 0.43 | > 10 | > 10 | 0.503
3 | TC-YIK (Other Solid Carcinomas) | 0.00402 |  | > 20 | 1.93 | > 3 | 0.0202 | > 1 | 2.5 | > 10 | > 1 | 2.73 | > 10 | 0.0219 |  | > 10 |  | 0.0313 | 4.37 | > 0.3 | 1.64 | 7.13 | > 10 | > 10 | 0.00186 | > 2 | > 10 | > 10 | > 10 | 0.156 | > 1 | > 10 | 0.576 |  | > 10 | 0.057
